# How the values were obtained:
# [1] = system: Pseudomonas aeruginosa NCTC 10490; experiment: Antibacterial test, agar plate dilution method; details: 37° C., 18 hours, MH agar
# [2] = system: Micrococcus luteus ATCC9341; experiment: Antibacterial test, agar plate dilution method; details: 37° C., 18 hours, MH agar
# [3] = system: Pseudomonas aeruginosa IFO 3445; experiment: Antibacterial test, agar plate dilution method; details: 37° C., 18 hours, MH agar
# [4] = system: Streptococcus pyogenes Cook; experiment: Antibacterial test, agar plate dilution method; details: 37° C., 18 hours, MH agar
# [5] = system: Bacillus subtilis ATCC6633; experiment: Antibacterial test, agar plate dilution method; details: 37° C., 18 hours, MH agar
# [6] = system: Proteus mirabilis IFO3849; experiment: Antibacterial test, agar plate dilution method; details: 37° C., 18 hours, MH agar
# [7] = system: Enterobacter aerougenes ATCC13048; experiment: Antibacterial test, agar plate dilution method; details: 37° C., 18 hours, MH agar
# [8] = system: Klebsiella pneumoniae PCI-602; experiment: Antibacterial test, agar plate dilution method; details: 37° C., 18 hours, MH agar
# [9] = system: Serratia marcescens IAM1184; experiment: Antibacterial test, agar plate dilution method; details: 37° C., 18 hours, MH agar
# [10] = system: Salmonella typhimurium IID971; experiment: Antibacterial test, agar plate dilution method; details: 37° C., 18 hours, MH agar
# [11] = system: Salmonella enteritidis G14; experiment: Antibacterial test, agar plate dilution method; details: 37° C., 18 hours, MH agar
# [12] = system: Escherichia coli NIHJ JC-2; experiment: Antibacterial test, agar plate dilution method; details: 37° C., 18 hours, MH agar
# Salmonella typhi 901 = experiment: Antibacterial test, agar plate dilution method; type: cell-based; details: 37° C., 18 hours, MH agar
# Proteus vulgaris OX-19 = experiment: Antibacterial test, agar plate dilution method; details: 37° C., 18 hours, MH agar
# [13] = system: Salmonella schottmuelleri 8006; experiment: Antibacterial test, agar plate dilution method; details: 37° C., 18 hours, MH agar
# Proteus vulgaris HX-19 = experiment: Antibacterial test, agar plate dilution method; details: 37° C., 18 hours, MH agar
# [14] = system: Staphylococcus aureus Terajima; experiment: Antibacterial test, agar plate dilution method; details: 37° C., 18 hours, MH agar
# [15] = system: Salmonella paratyphi 1015; experiment: Antibacterial test, agar plate dilution method; type: cell-based; details: 37° C., 18 hours, MH agar
# [16] = system: Providencia rettgeri IFO 3850; experiment: Antibacterial test, agar plate dilution method; details: 37° C., 18 hours, MH agar
# [17] = system: Staphylococcus aureus FDA 209P JC-1; experiment: Antibacterial test, agar plate dilution method; details: 37° C., 18 hours, MH agar
# Enterobacter cloacae 963 = experiment: Antibacterial test, agar plate dilution method; details: 37° C., 18 hours, MH agar
# [18] = system: Staphylococcus aureus MS352; experiment: Antibacterial test, agar plate dilution method; details: 37° C., 18 hours, MH agar
# [19] = system: Escherichia coli K12 C600; experiment: Antibacterial test, agar plate dilution method; type: cell-based; details: 37° C., 18 hours, MH agar
# Proteus morganii GN 5307 = experiment: Antibacterial activity against clinically isolated β-lactamase producing strains; type: cell-based; details: cephalosporinase producing strain, 18 to 20 hours
# Experimental: (§1) A solution of a cephalosporinase producing strain stored by Episome Research Institute, which was prepared by incubating the strain in a sensitivity test broth (STB; product of Nissui K.K.) for 18 hours, was diluted with a fresh STB solution to contain 10^5 cells per milliliter and the diluted solution was then inoculated as spots with a microplanter on a sensitivity disk agar-N (SDA; product of Nissui K.K.) containing a test compound. The disk agar was then incubated for 18 to 20 hours. A minimum inhibitory concentration was determined as a minimum concentration in which the test microorganism had no longer grown after a 18 to 20 hour incubation.
# [20] = system: Enterobacter cloacae GN 7467; experiment: as above; type: cell-based; details: cephalosporinase producing strain, 18 to 20 hours
# Experimental: as §1
# [21] = system: Pseudomonas aeruginosa GN 10362; experiment: as above; type: cell-based; details: cephalosporinase producing strain, 18 to 20 hours
# Experimental: as §1
# [22] = system: Enterobacter cloacae GN 7471; experiment: as above; type: cell-based; details: cephalosporinase producing strain, 18 to 20 hours
# Experimental: as §1
# [23] = system: Pseudomonas aeruginosa GN 918; experiment: as above; type: cell-based; details: cephalosporinase producing strain, 18 to 20 hours
# Experimental: as §1
# Escherichia coli No. 96 = experiment: as above; type: cell-based; details: cephalosporinase producing strain, 18 to 20 hours
# Experimental: as §1
# Serratia marcescens L-65 = experiment: as above; type: cell-based; details: cephalosporinase producing strain, 18 to 20 hours
# Experimental: as §1
# Proteus morganii GN 5407 = experiment: as above; type: cell-based; details: cephalosporinase producing strain, 18 to 20 hours
# Experimental: as §1
# Proteus vulgaris GN 76 = experiment: as above; type: cell-based; details: cephalosporinase producing strain, 18 to 20 hours
# Experimental: as §1
# [24] = system: Pseudomonas aeruginosa GN 10367; experiment: as above; type: cell-based; details: cephalosporinase producing strain, 18 to 20 hours
# Experimental: as §1
# Serratia marcescens L-82 = experiment: as above; type: cell-based; details: cephalosporinase producing strain, 18 to 20 hours
# Experimental: as §1
# Proteus morganii GN 5375 = experiment: as above; type: cell-based; details: cephalosporinase producing strain, 18 to 20 hours
# Experimental: as §1
# [25] = system: Providencia rettgeri GN 4430; experiment: as above; type: cell-based; details: cephalosporinase producing strain, 18 to 20 hours
# Experimental: as §1
# Proteus vulgaris GN 7919 = experiment: as above; type: cell-based; details: cephalosporinase producing strain, 18 to 20 hours
# Experimental: as §1
# [26] = system: Pseudomonas cepacia GN 11164; experiment: as above; type: cell-based; details: cephalosporinase producing strain, 18 to 20 hours
# Experimental: as §1
# [27] = system: Citrobactor freundii GN 7391; experiment: as above; type: cell-based; details: cephalosporinase producing strain, 18 to 20 hours
# Experimental: as §1
# [28] = system: Klebsiella oxytoca GN 10650; experiment: as above; type: cell-based; details: cephalosporinase producing strain, 18 to 20 hours
# Experimental: as §1
# [29] = system: Providencia rettgeri GN 4762; experiment: as above; type: cell-based; details: cephalosporinase producing strain, 18 to 20 hours
# Experimental: as §1
# Escherichia coli GN 5482 = experiment: as above; type: cell-based; details: cephalosporinase producing strain, 18 to 20 hours
# Experimental: as §1
# [30] = system: Citrobactor freundii GN 346; experiment: as above; type: cell-based; details: cephalosporinase producing strain, 18 to 20 hours
# Experimental: as §1
# [31] = system: Escherichia coli No. 1501; experiment: as above; type: cell-based; details: cephalosporinase producing strain, 18 to 20 hours
# Experimental: as §1
# [32] = system: Serratia marcescens GN 10857; experiment: as above; type: cell-based; details: cephalosporinase producing strain, 18 to 20 hours
# Experimental: as §1
# [33] = system: Enterobacter cloacae GN 5797; experiment: as above; type: cell-based; details: cephalosporinase producing strain, 18 to 20 hours
# Experimental: as §1
# Proteus vulgaris GN 4413 = experiment: as above; type: cell-based; details: cephalosporinase producing strain, 18 to 20 hours
# Experimental: as §1
# [34] = system: Providencia rettgeri GN 5284; experiment: as above; type: cell-based; details: cephalosporinase producing strain, 18 to 20 hours
# Experimental: as §1
# [35] = system: Morganella morganii IFO3848; experiment: Antibacterial test, agar plate dilution method; details: 37° C., 18 hours, MH agar
# physchem = details: amorphous solid storage
# [36] = system: C. freundii resistant strains; experiment: Sensitivity test against clinical isolates, C. freundii resistant strains; type: cell-based; details: CFIX/CTX resistant strains
# Experimental: Cefixime (CFIX) (50 to >100 μg/ml)
# Cefotaxime (CTX) (50 to >100 μg/ml)
# The tests were carried out in the same manner as described above Test 1.
# [37] = system: P. aeruginosa resistant strains; experiment: Sensitivity test against clinical isolates, P. aeruginosa resistant strains; type: cell-based; details: 54 resistant strains
# Experimental: It is noted here that the 54 strains have been chosen because there have been the strains in duplicate with the agents. ______________________________________ Ceftazidime (CAZ) (25 to 100 μg/ml) 21 strains Cefsulodine (CFS) (25 to >100 μg/ml) 23 strains Piperacilin (PIPC) (25 to >100 μg/ml) 15 strains Gentamycin (GM) (25 to >100 μg/ml) 21 strains Amikacin (AMK) (25 to >100 μg/ml) 26 strains Ofloxacin (OFLX) (25 to >100 μg/ml) 4 strains ______________________________________
# A minimum inhibitory concentration (MIC) was determined in substantially the same manner as the test procedures II above using the 54 strains of P. aeruginosa having an anti-Pseudomonas resistance.
# [38] = parameters: species or system male mice of CrjCD(SD) type; details: mouse, in vivo, sc, 500 mg/kg
# Experimental: Toxicological studies have been carried out using a group of 10 male mice of CrjCD(SD) type weighing from 20 to 23 grams. A solution containing the carbapenem compound (15) of the present invention obtained by Example 6 was administered subcutaneously to the mice and subjected to observations for one week.
# [39] = over a period of ten days
# [40] = system: Swine Kidney Dehydropeptidase-I (DHP-I); experiment: Hydrolysis activity against DHP-I enzyme substrate by late assay; type: in vitro ADME; details: final substrate concentration 100 μM, 10 minutes, pH 7.1
# Experimental: The swine kidney (8 kg) was homogenized and an enzyme protein was allowed to precipitate. After a connective lipid was removed with acetone, the resultant material was made soluble by treatment with butanol and purified in the order by the ammonium sulfate fraction method, thereby producing DPH-I enzyme from a 75% ammonium sulfate fraction.
# The DHP-I enzyme was then adjusted to give an enzyme concentration of 25 mg/10 ml (phosphate buffer, pH 7.1), and divided into 1 ml portions. The portions were frozen and stored at -40° C. or less until use.
# As control compounds were employed glycyl dehydrophenylalanine (Gl-dh-Ph) and imipenem, and they were adjusted in situ each to give the concentration of 177 μM with the same sodium phosphate buffer solution.
# To 1.2 ml of a 50 mM sodium phosphate buffer solution (substrate) containing 177 μM of each of Gh-dh-Ph and imipenem as the control compounds was added 0.2 ml of the DHP-I enzyme solution (25 mg/10 ml) prepared above in the final substrate concentration of 100 μM. The solution was then incubated at […] for 10 minutes. An initial velocity of hydrolysis of the substrate was measured from a decrease in absorbency at a particular λmax of each of the substrates.
# A blank test was conducted in substantially the same manner as above by adding 0.2 ml of the sodium phosphate buffer solution (pH 7.1) to 1.2 ml of the above substrate.
compound,measurement,setting,value
"(1R, 5S, 6S)-2-[4-pyrazolidinyl]thio-6-[(R)-1-hydroxyethyl]-1-methyl-carbapenem-3-carboxylic acid [Compound 14]",MIC,[1],0.78 µg/mL
same,MIC,[2],0.1 µg/mL
same,MIC,[3],0.78 µg/mL
same,MIC,[4],0.025 µg/mL
same,MIC,[5],0.1 µg/mL
same,MIC,[6],0.39 µg/mL
same,MIC,[7],0.39 µg/mL
same,MIC,[8],0.05 µg/mL
same,MIC,[9],0.2 µg/mL
same,MIC,[10],0.1 µg/mL
same,MIC,[11],0.2 µg/mL
same,MIC,[12],0.05 µg/mL
same,MIC,Salmonella typhi 901,0.025 µg/mL
same,MIC,Proteus vulgaris OX-19,0.025 µg/mL
same,MIC,[13],0.2 µg/mL
same,MIC,Proteus vulgaris HX-19,0.1 µg/mL
same,MIC,[14],0.025 µg/mL
same,MIC,[15],0.39 µg/mL
same,MIC,[16],0.2 µg/mL
same,MIC,[17],0.05 µg/mL
same,MIC,Enterobacter cloacae 963,0.1 µg/mL
same,MIC,[18],0.1 µg/mL
same,MIC,[19],0.2 µg/mL
same,MIC,Proteus morganii GN 5307,0.39 µg/mL
same,MIC,[20],1.56 µg/mL
same,MIC,[21],1.56 µg/mL
same,MIC,[22],0.1 µg/mL
same,MIC,[23],1.56 µg/mL
same,MIC,Escherichia coli No. 96,0.025 µg/mL
same,MIC,Serratia marcescens L-65,0.2 µg/mL
same,MIC,Proteus morganii GN 5407,1.56 µg/mL
same,MIC,Proteus vulgaris GN 76,1.56 µg/mL
same,MIC,[24],1.56 µg/mL
same,MIC,Serratia marcescens L-82,0.1 µg/mL
same,MIC,Proteus morganii GN 5375,1.56 µg/mL
same,MIC,[25],0.2 µg/mL
same,MIC,Proteus vulgaris GN 7919,1.56 µg/mL
same,MIC,[26],0.39 µg/mL
same,MIC,[27],0.78 µg/mL
same,MIC,[28],0.1 µg/mL
same,MIC,[29],0.2 µg/mL
same,MIC,Escherichia coli GN 5482,0.025 µg/mL
same,MIC,[30],0.78 µg/mL
same,MIC,[31],0.025 µg/mL
same,MIC,[32],1.56 µg/mL
same,MIC,[33],0.1 µg/mL
same,MIC,Proteus vulgaris GN 4413,1.56 µg/mL
same,MIC,[34],0.2 µg/mL
same,MIC,[35],0.1 µg/mL
C[C@@H](O)[C@H]1C(=O)N2C(C(=O)[O-])=C(SC3Cn4cnc[n+]4C3)[C@H](C)[C@H]12 (stereo partly drawn) [amorphous form],remaining at 240 h,physchem,~40%
"C[C@@H](O)[C@H]1C(=O)N2C(C(=O)[O-])=C(SC3Cn4cnc[n+]4C3)[C@H](C)[C@H]12 (stereo partly drawn) [Compound 15, 6-[(R)-1-hydroxyethy]-1-methyl-2-(5H-pyrazolo[1,2-a]triazolinium-6-yl) thio-carbapenem-3-carboxylic acid]",test microorganisms whose growth is inhibited,[36]; concentration of 0.78 μg/ml,approximately 98%
same,test microorganisms whose growth is inhibited,[36]; concentration of 1.56 μg/ml,all the test microorganisms
same,test microorganisms whose growth is inhibited,[37]; concentration of 12.5 μg/ml,all the test microorganisms
same,test microorganisms whose growth is inhibited,[37]; concentration of […],approximately 98%
same,survival and abnormal observations,[38],alive without any abnormal observations
C[C@@H](O)[C@H]1C(=O)N2C(C(=O)[O-])=C(SC3Cn4cnc[n+]4C3)[C@H](C)[C@H]12 (stereo partly drawn) [crystalline form],loss of potency on storage,[39],no appreciable loss of potency
"NCC(=O)NC(=Cc1ccccc1)C(=O)O [Gl-dh-Ph, glycyl dehydrophenylalanine]",initial velocity of hydrolysis against DHP-I,[40],17.4 µM/min
